The assay deals with Canine filariae (Dirofilaria immitis) L-3 stage larvae. The experiment in a line: Impact evaluation test on growth of canine filariae (L3 to L4). As to conditions: 168 h, read-out: growth inhibition rate (growth from L3-stage larvae to L4-stage larvae).

For orientation: inhibition means the change of the read-out against control, counted positive when it falls. Turning to `CCCCC#Cc1ccc(-c2nc3c(Br)cc(Br)cc3[nH]2)o1` [Compound 1-11, 4,6-dibromo-2-(5-(1-hexynyl)-2-furyl)benzimidazole], the inhibition at 50 ppm was at least 50%.
